Test results: article PMC8036603, “Small Molecule Inhibitors of White Spot Syndrome Virus: Promise in Shrimp Seedling Culture” (International Journal of Molecular Sciences, 2021)
≈ marks a conversion by molar mass, not a printed value. Read-outs that look alike come from different tables or passages of the source.

Assays:
[1] = Acute toxicity assay in shrimp larvae; assay type: in vivo, Litopenaeus vannamei; settings: Litopenaeus vannamei (shrimp) larvae, in vivo, other: immersion of larvae in test solutions, 28 °C, 95% CI in brackets; for LC50 at 24 h: 24 h exposure, read-out: LC50 (mg/L; 95% CI) 24 h; for LC50 at 48 h: 48 h exposure, read-out: LC50 (mg/L; 95% CI) 48 h; for LC50 at 72 h: 72 h exposure, read-out: LC50 (mg/L; 95% CI) 72 h
Experimental: Shrimp (L. vannamei) larvae (total length: 0.5 ± 0.04 cm, body weight: 4.2 ± 0.4 mg, mean ± SD) were provided by Zhejiang Mariculture Research Institute Qingjiang Station (Wenzhou, China). The larvae were maintained in a culture pond at 28 °C, fed four times a day with commercial feed pellets, and collected randomly for PCR testing to verify the WSSV-free status prior to the trial.
Acute toxicity of the coumarin derivatives was investigated by exposing larvae to a range of compound concentrations, from 0.1 mg/L to 100 mg/L of coumarin derivatives, where the dose setting was based on the data from preliminary tests in our laboratory. A DMSO-control (2%, v/v, the highest percentage of DMSO in treatments) served as the control. During the experiment, every 20 larvae were moved into six-well plates filled with 6 mL/per well freshly prepared test solutions for a 72-h incubation at 28 °C with a natural photoperiod. […] To avoid deterioration of water quality, dead shrimps were immediately removed at the point of observation. Three replicate experiments were performed.
Compound response curves were represented by a logistic sigmoidal function with a maximal effect level (Amax) and Hill coefficient representing the sigmoidal transition (Origin 8.1; http://www.originlab.com, accessed on 25 March 2021). Statistical analyses were performed using SPSS (version 18.0) statistical software (SPSS Inc., Chicago, IL, USA). The LC50 and EC50 values with 95% CIs were calculated using probit analysis. Virus titers were log10-transformed prior to statistical analyses. Unpaired Student’s t-tests were used to compare coumarin-treated samples and negative-control DMSO samples for determining significance and data are presented as mean values ± SD.

[2] = system: white spot syndrome virus (WSSV); experiment: Anti-WSSV activity in shrimp larvae, co-incubation, copy number of viral genome by RT-qPCR; assay type: in vivo, Litopenaeus vannamei
[3] = Solubility / precipitation in aquacultural water; assay type: physicochemical; settings: test range 0.4~100 mg/L; aquacultural water; LC50 NONE
Experimental: Prior to evaluation of the anti-WSSV activity of coumarins, the safety doses for larvae needed to be determined. […] In contrast, the electron-withdrawing group was more toxic than the electron-donating group, with the LC50 of A5‒A8 being <5 mg/L at 72 h. […] Based on preliminary analysis of the structure-activity relationship (SAR) of similar spatial structures with different substituents of electron-donating and electron-withdrawing groups to coumarins A1, B1, and C1, we considered that […] of compounds; this provides a basis for further research.
All conventional reagents and solvents are purchased directly from commercial companies and no further purification is required. Organic solvents were purchased from Sinopharm chemical reagent Co., Ltd. and purified by distillation and moisture was excluded from the glass apparatus using CaCl2 drying tubes. Throughout this study, silica gel H (200–300 mesh; Qingdao Marine Chemical Factory, Qingdao, China) was used for the column chromatography. For thin layer chromatographic (TLC) plates, Silica gel (GF254) (Qingdao Marine Chemical Factory, Qingdao, China) were used for thin layer chromatographic (TLC) analysis, and all of the spots and bands were detected by UV irradiation (254, 365 nm). The intermediates and products were characterized by electrospray ionization mass spectrometry (TripleTOF5600þ; AB SCIEX Pte. Ltd., Boston, MA, USA), ^1H NMR and ^13C NMR (Bruker AM500 spectrometer; Bruker Corporation, Berne, Switzerland). The derivatives were dissolved in 100% dimethyl sulfoxide (DMSO; Beyotime Biotechnology, Haimen, China), stored at 4 °C prior to antiviral evaluation, and used within 6 months. For solubility, the stock solutions, at a concentration of 50 mg/mL, were sonicated for approximately 10 min to ensure that the derivatives were fully dissolved and mixed.

[4] = Whispovirus xiabaidian, 72 h, WSSV-infected larvae, copy number of viral genome, 72 h; 95% CI in brackets; read-out: EC50 (mg/L; 95% CI), median effective concentration
[5] = Whispovirus xiabaidian, 72 h, read-out: EC50 (mg/L; 95% CI), median effective concentration, WSSV-infected larvae, copy number of viral genome, 72 h; 95% CI in brackets
[6] = six-point dose-response, viral genome copy number in larvae
[7] = WSSV-infected larvae, copy number of viral genome, 72 h; 95% CI in brackets

SMILES	LC50 at 24 h [1] [mg/L]	LC50 at 48 h [1] [mg/L]	LC50 at 72 h [1] [mg/L]	also measured
O=C1Nc2c(c(=O)oc3ccccc23)C(c2ccc([N+](=O)[O-])cc2)N1 (stereo not drawn) [A8, 4-(4-nitrophenyl)-3,4-dihydro-2H-chromeno[4,3-d]pyrimidine-2,5(1H)-dione]	8.76 (≈ 26 µM)	3.43 (≈ 10.2 µM)	1.61 (≈ 4.79 µM)	
N#Cc1ccc(C2NC(=O)Nc3c2c(=O)oc2ccccc32)cc1 (stereo not drawn) [A9, 4-(2,5-dioxo-1,3,4,5-tetrahydro-2H-chromeno[4,3-d]pyrimidin-4-yl)benzonitrile]	19.8 (≈ 62.5 µM)	18 (≈ 56.6 µM)	7.33 (≈ 23.1 µM)	
COc1ccc(C2NC(=O)Nc3c2c(=O)oc2ccccc32)cc1 (stereo not drawn) [A3, 4-(4-methoxyphenyl)-3,4-dihydro-2H-chromeno[4,3-d]pyrimidine-2,5(1H)-dione]	26.9 (≈ 83.4 µM)	24.5 (≈ 76 µM)	21.1 (≈ 65.5 µM)	EC50 [2, 4]: 14.9 mg/L
O=C1Nc2c(c(=O)oc3ccccc23)C(c2ccc(Br)cc2)N1 (stereo not drawn) [A7, 4-(4-bromophenyl)-3,4-dihydro-2H-chromeno[4,3-d]pyrimidine-2,5(1H)-dione]	14.1 (≈ 38.1 µM)	5.68 (≈ 15.3 µM)	3.37 (≈ 9.07 µM)	
N#CC1=C(N)Oc2c(c(=O)oc3ccccc23)C1c1ccc(Cl)cc1 (stereo not drawn) [C6]		44.2 (≈ 126 µM)	17.7 (≈ 50.4 µM)	EC50 [2, 5]: 8.54 mg/L; inhibitory efficiency on WSSV replication [2, 6]: exceeded 90%
N#CC1=C(N)Oc2c(c(=O)oc3ccccc23)C1c1ccccc1 (stereo not drawn) [C1]	18.4 (≈ 58.2 µM)	16.6 (≈ 52.6 µM)	9.18 (≈ 29 µM)	EC50 [2, 5]: 2.9 mg/L
O=c1oc2ccccc2c2c1C(c1ccc(O)cc1)NC(=S)N2 (stereo not drawn) [B4, 4-(4-hydroxyphenyl)-2-thioxo-1,2,3,4-tetrahydro-5H-chromeno[4,3-d]pyrimidin-5-one]				EC50 [2, 5]: 22.6 mg/L; inhibitory efficiency on WSSV replication [2, 6]: exceeded 90%; lowest precipitation concentration [3]: NONE (50) mg/L; lowest precipitation concentration (bracketed value in LC50 48 h column) [3]: NONE (50) mg/L; lowest precipitation concentration (bracketed value in LC50 72 h column) [3]: NONE (50) mg/L
COc1ccc(C2C(C#N)=C(N)Oc3c2c(=O)oc2ccccc32)cc1 (stereo not drawn) [C3]	22.3 (≈ 64.5 µM)	17.3 (≈ 50 µM)	17.3 (≈ 50 µM)	EC50 [2, 5]: 14.8 mg/L
O=C1Nc2c(c(=O)oc3ccccc23)C(c2ccc(F)cc2)N1 (stereo not drawn) [A5, 4-(4-fluorophenyl)-3,4-dihydro-2H-chromeno[4,3-d]pyrimidine-2,5(1H)-dione]	16.6 (≈ 53.6 µM)	11.7 (≈ 37.9 µM)	10.1 (≈ 32.4 µM)	EC50 (mg/L; 95% CI), median effective concentration [2, 7]: 08.416 (7.137~11.317) mg/L; EC50 [2, 4]: < 10 mg/L
O=c1oc2ccccc2c2c1C(c1ccc([N+](=O)[O-])cc1)NC(=S)N2 (stereo not drawn) [B8, 4-(4-nitrophenyl)-2-thioxo-1,2,3,4-tetrahydro-5H-chromeno[4,3-d]pyrimidin-5-one]	13.6 (≈ 38.3 µM)	7.48 (≈ 21.2 µM)	3.06 (≈ 8.65 µM)	
Cc1ccc(C2NC(=S)Nc3c2c(=O)oc2ccccc32)cc1 (stereo not drawn) [B2, 2-thioxo-4-(p-tolyl)-1,2,3,4-tetrahydro-5H-chromeno[4,3-d]pyrimidin-5-one]	23.9 (≈ 74 µM)	18.6 (≈ 57.6 µM)	14.7 (≈ 45.5 µM)	
Cc1ccc(C2NC(=O)Nc3c2c(=O)oc2ccccc32)cc1 (stereo not drawn) [A2, 4-(p-tolyl)-3,4-dihydro-2H-chromeno[4,3-d]pyrimidine-2,5(1H)-dione]	15 (≈ 49 µM)	14.3 (≈ 46.6 µM)	10 (≈ 32.7 µM)	EC50 (mg/L; 95% CI), median effective concentration [2, 7]: 05.037 (4.076~7.593) mg/L; EC50 [2, 4]: < 10 mg/L
O=c1oc2ccccc2c2c1C(c1ccc(Br)cc1)NC(=S)N2 (stereo not drawn) [B7, 4-(4-bromophenyl)-2-thioxo-1,2,3,4-tetrahydro-5H-chromeno[4,3-d]pyrimidin-5-one]	10 (≈ 25.9 µM)	4.81 (≈ 12.4 µM)	4.46 (≈ 11.5 µM)	
O=c1oc2ccccc2c2c1C(c1ccc(Cl)cc1)NC(=S)N2 (stereo not drawn) [B6, 4-(4-chlorophenyl)-2-thioxo-1,2,3,4-tetrahydro-5H-chromeno[4,3-d]pyrimidin-5-one]	8.85 (≈ 25.8 µM)	6.63 (≈ 19.3 µM)	4.5 (≈ 13.1 µM)	
COc1ccc(C2NC(=S)Nc3c2c(=O)oc2ccccc32)cc1 (stereo not drawn) [B3, 4-(4-methoxyphenyl)-2-thioxo-1,2,3,4-tetrahydro-5H-chromeno[4,3-d]pyrimidin-5-one]	66.2 (≈ 196 µM)	64.1 (≈ 189 µM)	41.7 (≈ 123 µM)	EC50 [2, 4]: 25.6 mg/L
O=c1oc2ccccc2c2c1C(c1ccc(F)cc1)NC(=S)N2 (stereo not drawn) [B5, 4-(4-fluorophenyl)-2-thioxo-1,2,3,4-tetrahydro-5H-chromeno[4,3-d]pyrimidin-5-one]	16.6 (≈ 50.7 µM)	8.87 (≈ 27.2 µM)	8.4 (≈ 25.7 µM)	
O=c1oc2ccccc2c2c1C(c1ccccc1)NC(=S)N2 (stereo not drawn) [B1, 4-phenyl-2-thioxo-1,2,3,4-tetrahydro-5H-chromeno[4,3-d]pyrimidin-5-one]	15 (≈ 48.7 µM)	12.8 (≈ 41.4 µM)	10.5 (≈ 34.2 µM)	
N#Cc1ccc(C2NC(=S)Nc3c2c(=O)oc2ccccc32)cc1 (stereo not drawn) [B9, 4-(5-oxo-2-thioxo-1,3,4,5-tetrahydro-2H-chromeno[4,3-d]pyrimidin-4-yl)benzonitrile]	37.1 (≈ 111 µM)	31.5 (≈ 94.5 µM)	9.63 (≈ 28.9 µM)	
N#CC1=C(N)Oc2c(c(=O)oc3ccccc23)C1c1ccc(C#N)cc1 (stereo not drawn) [C9]				EC50 [2, 5]: 60.5 mg/L
N#CC1=C(N)Oc2c(c(=O)oc3ccccc23)C1c1ccc(O)cc1 (stereo not drawn) [C4]				EC50 [2, 4]: 61.2 mg/L; inhibitory efficiency on WSSV replication [2, 6]: exceeded 90%
O=C1Nc2c(c(=O)oc3ccccc23)C(c2ccccc2)N1 (stereo not drawn) [A1, 4-phenyl-3,4-dihydro-2H-chromeno[4,3-d]pyrimidine-2,5(1H)-dione]	95.5 (≈ 327 µM)	71.4 (≈ 244 µM)	32.5 (≈ 111 µM)	EC50 [2, 4]: 21.5 mg/L
O=C1Nc2c(c(=O)oc3ccccc23)C(c2ccc(Cl)cc2)N1 (stereo not drawn) [A6, 4-(4-chlorophenyl)-3,4-dihydro-2H-chromeno[4,3-d]pyrimidine-2,5(1H)-dione]	2.58 (≈ 7.91 µM)	2.48 (≈ 7.59 µM)	2.35 (≈ 7.18 µM)	
